Assay [1] has as its system Hep-3B cells. Put plainly: Cellular assay: EPO secretion in Hep-3B cells. It is filed as cell-based, human. Also on record: EPO secretion, % of control compound: dose or concentration left out as unconfirmed. To be noted: Homo sapiens, Hep3B, 24 h, EPO secretion as percentage of control compound 7-[(4-Chloro-phenyl)-(5-methyl-isoxazol-3-ylamino)-methyl]-quinolin-8-ol, read-out: Cellular % EPO Stimulation.

Assay [2] has as its target human PHD2181-417 (Homo sapiens (Human), UniProt Q9GZT9). Kind of assay: PHD2 enzyme activity assay ([14C]-succinic acid production).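 Also: reaction ran 10 min with compound in Tris pH 7.5 buffer with catalase, DTT and ascorbate, labelled succinate freed of leftover 2-oxoglutarate by DNP precipitation, then beta counted.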 It is filed as biochemical. To be noted: PHD2181-417 polypeptide, HIF-1α peptide 10 μM, [5-14C]-2-oxoglutaric acid; 30 min pre-incubation; tested 10 μM to 3 nM.

human PHD2181-417, sequence (Q9GZT9 181-417): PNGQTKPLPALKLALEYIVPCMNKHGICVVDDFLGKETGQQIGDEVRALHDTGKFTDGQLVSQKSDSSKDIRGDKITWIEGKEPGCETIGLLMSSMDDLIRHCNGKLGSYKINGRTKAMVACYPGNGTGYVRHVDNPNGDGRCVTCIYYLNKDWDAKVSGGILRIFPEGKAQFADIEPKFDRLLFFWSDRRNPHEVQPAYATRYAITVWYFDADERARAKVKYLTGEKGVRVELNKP

With `CCSc1cc2[nH]c(-n3cc(C(=O)O)cn3)nc2cc1Cl` [Example 76, 1-(5-Chloro-6-ethylsulfanyl-1H-benzoimidazol-2-yl)-1H-pyrazole-4-carboxylic Acid], in assay [1], the EPO secretion, % of control compound was determined as 212%. The “Enzyme pIC50” value in assay [2] is on record as 6.9.
With `CC(C)Sc1cc2[nH]c(-n3cc(C(=O)O)cn3)nc2cc1Cl` [Example 77, 1-(5-Chloro-6-isopropylsulfanyl-1H-benzoimidazol-2-yl)-1H-pyrazole-4-carboxylic Acid], in assay [1], the EPO secretion, % of control compound is 153%. The “Enzyme pIC50” value in assay [2] is reported as 6.8.
On the same counts, the results for `CCCSc1cc2[nH]c(-n3cc(C(=O)O)cn3)nc2cc1Cl` [Example 78, 1-(5-Chloro-6-propylsulfanyl-1H-benzoimidazol-2-yl)-1H-pyrazole-4-carboxylic Acid] are 125% and 7.
In the same order, the values of `CSc1cc2[nH]c(-n3cc(C(=O)O)cn3)nc2cc1OC(F)(F)F` [Example 79, 1-(6-Methylsulfanyl-5-trifluoromethoxy-1H-benzoimidazol-2-yl)-1H-pyrazole-4-carboxylic Acid] are 83.8% and 7.1.
In the same order, the values of `Cc1cccc(S(=O)(=O)c2cc3nc(-n4cc(C(=O)O)cn4)[nH]c3cc2Cl)c1` [Example 82, 1-[6-Chloro-5-(toluene-3-sulfonyl)-1H-benzoimidazol-2-yl]-1H-pyrazole-4-carboxylic Acid] are 85.3% and 7.4.
For `O=C(O)c1cnn(-c2nc3cc(S(=O)(=O)c4ccccc4)c(Cl)cc3[nH]2)c1` [Example 83, 1-(5-Benzenesulfonyl-6-chloro-1H-benzoimidazol-2-yl)-1H-pyrazole-4-carboxylic Acid], the EPO secretion, % of control compound in assay [1] amounted to 96.7%. Also, the “Enzyme pIC50” value in assay [2] amounted to 7.57.
In the same order, the values of `COc1ccc(S(=O)(=O)c2cc3nc(-n4cc(C(=O)O)cn4)[nH]c3cc2Cl)cc1` [Example 84, 1-[6-Chloro-5-(4-methoxy-benzenesulfonyl)-1H-benzoimidazol-2-yl]-1H-pyrazole-4-carboxylic Acid] are 42.7% and 7.3.
On the same counts, the results for `O=C(O)c1cnn(-c2nc3cc(S(=O)(=O)c4ccc(Cl)cc4)c(Cl)cc3[nH]2)c1` [Example 85, 1-[6-Chloro-5-(4-chloro-benzenesulfonyl)-1H-benzoimidazol-2-yl]-1H-pyrazole-4-carboxylic Acid] are 51.6% and 7.3.
For the molecule `O=C(O)c1cnn(-c2nc3cc(S(=O)(=O)c4ccc(OC(F)(F)F)cc4)c(Cl)cc3[nH]2)c1` [Example 86, 1-[6-Chloro-5-(4-trifluoromethoxy-benzenesulfonyl)-1H-benzoimidazol-2-yl]-1H-pyrazole-4-carboxylic Acid], the EPO secretion, % of control compound in assay [1] stood at 48.9%. In assay [2], the “Enzyme pIC50” value came to 7.3.
On the same counts, the results for `O=C(O)c1cnn(-c2nc3cc(S(=O)(=O)c4ccc(Cl)c(Cl)c4)c(Cl)cc3[nH]2)c1` [Example 87, 1-[6-Chloro-5-(3,4-dichloro-benzenesulfonyl)-1H-benzoimidazol-2-yl]-1H-pyrazole-4-carboxylic Acid] are 32.4% and 6.68.
Consider `COc1cccc(S(=O)(=O)c2cc3nc(-n4cc(C(=O)O)cn4)[nH]c3cc2Cl)c1` [Example 88, 1-[6-Chloro-5-(3-methoxy-benzenesulfonyl)-1H-benzoimidazol-2-yl]-1H-pyrazole-4-carboxylic Acid], for which, in assay [1], the EPO secretion, % of control compound amounted to 69.4%. The “Enzyme pIC50” value in assay [2] turned out to be 7.4.
Consider `O=C(O)c1cnn(-c2nc3cc(S(=O)(=O)Cc4ccccc4)c(Cl)cc3[nH]2)c1` [Example 89, 1-(6-Chloro-5-phenylmethanesulfonyl-1H-benzoimidazol-2-yl)-1H-pyrazole-4-carboxylic Acid], for which, in assay [1], the EPO secretion, % of control compound came out at 28.4%. In addition, the “Enzyme pIC50” value in assay [2] is 7.5.

For the origin of these results see patent US10851083B2, “Benzoimidazoles as prolyl hydroxylase inhibitors” (Janssen Pharmaceutica NV, priority 2008, dated 2020).
